Two molecules from patent publication US7750148B2, “Intermediate compound for the production of β-lactamase-resistant cephalosporin ester compounds and salts thereof” (Zhejiang Yongning Pharmaceutical Factory, priority 2003, dated 2010) can be followed below.

Series [1] relates to Bacillus proteus 49085, Proteus morganii 49086. Kind of series: Ex vivo antibacterial activity experiment after mouse is administered, conclusions (strains not separated). Type of series: in vivo. An excerpt: the sources of tested samples (YR-1, YR-2) and control samples (CTM, CRX, CTM+SBT 1:1 and CRX+SBT 1:1) are the same as above. Bacillus proteus 49085, Proteus morganii 49086, inoculated 10^5CFU/ML each dish. Mueller-Hinton Agar (M.H) culture medium, batch number 000707 (Shanghai Reagent Supply Research Center, China Diarrhea Disease Control). Strain: Kunming mice; source: Animal Facility of Shanghai Institute of Pharmaceutical Industry; certificate number: Hudonghezhengzi No. 107; animal numbers: 120; Sex: same number of male and female mice; Body weight: 18-21 g; fast time: 16 hours. Group 1: CTM, CRX, CTM+SBT 1:1, CRX+SBT 1:1 were given at a dosage of 500 mg/kg intravenously, collecting blood at 10 minutes, 30 minutes, 1 hour, 2 hours, 4 hours, 8 hours after administration. Group 2: […] Kunming mice were randomly divided into several groups according to body weight of empty stomach and sex. Collecting blood of three mice at different time point, anticoagulated with heparin, centrifugated and separated plasma, quantitative spotting, semi-quantitated antibacterial activity according to the size of bacterial inhibition ring.

Series [2] deals with Diplococcus lanceolatus 0031. Kind of series: In vitro antibacterial activity (MIC, agar double dilution). Type of series: cell-based. To be noted: Diplococcus lanceolatus 0031, 10^5CFU/ML each point, 24 hours at 37° C. An excerpt: (§1) tested samples YR-1, YR-2 were the ones prepared in example 1 and example 5 respectively, control samples were cefetamet sodium (CTM), cefuroxime sodium (CRX), cefetamet sodium+sulbactam sodium (CTM+SBT) (molar ratio 1:1), cefuroxime+sulbactam sodium (CRX+SBT) (molar ratio 1:1). All control samples (have been sold on the market) were supplied by Zhejiang Yongning pharmaceutical factory.
Diplococcus lanceolatus 0031 was supplied by Shanghai First People's Hospital.
(§2) Mueller-Hinton Agar (M.H) culture medium, batch number 20040528 (Shanghai Reagent Supply Research Center, China Diarrhea Disease Control).
(§3) Adopted agar double dilution, inoculated using multipoint inoculator, inoculated 10^5CFU/ML each point, cultured for 24 hours at 37° C., observed and recorded the results, set the least concentration of the antibacterial drug that can inhibit bacteria growth as the minimum inhibitory concentration (MIC).

For the next series, the system named is Citrobacter 48017. Described as above. The format is cell-based.
Description: as §1
(§4) Staphylococcus aureus 26003, Diplococcus lanceolatus 31002, E. coli 44102, Shigella sonnet 51081, Shigella bogdii 51313, Shigella flexneri 51573, Proteus mirabilis 49005, Bacillus proteus 49085, Proteus morganii 49086, Pseudomonas aeruginosa 10124, Bacillus pneumoniae 46101, Salmonella enteritidis 50041, Salmonella typhi 50097, Citrobacter 48017, Candida ciferii 41002 were supplied by Shanghai Hygienic and Antiepidemic Station.
as §2, §3

In another series the test system is Shigella flexneri 51573. The description is as above. Type of series: cell-based.
Description: as §1, §4, §2, §3

Another series has as its system Shigella sonnet 51081. Described as above. Type of series: cell-based.
Description: as §1, §4, §2, §3

The test system of the next series is Bacillus proteus 49085. The series is described as above. The format is cell-based.
Description: as §1, §4, §2, §3

Series [3] has as its system Pseudomonas aeruginosa 10124. The series is described as above. The format is cell-based.
Description: as §1, §4, §2, §3

Series [4] has as its system Salmonella enteritidis 50041. Described as above. Type of series: cell-based.
Description: as §1, §4, §2, §3

The subject of a further series is Proteus mirabilis 49005. Described as above. The format is cell-based.
Description: as §1, §4, §2, §3

The next series has as its system Shigella bogdii 51313. The series is described as above. Type of series: cell-based.
Description: as §1, §4, §2, §3

The test system of another series is Candida ciferii 41002. The description is as above. The format is cell-based.
Description: as §1, §4, §2, §3

In series [5] the test system is Diplococcus lanceolatus 31002. The description is as above. The format is cell-based.
Description: as §1, §4, §2, §3

Series [6] deals with Staphylococcus aureus 26003. Described as above. The format is cell-based.
Description: as §1, §4, §2, §3

Another series relates to Salmonella typhi 50097. The description is as above. The format is cell-based. To be noted: 10^5CFU/ML each point, 24 hours at 37° C.
Description: as §1, §4, §2, §3

The subject of a further series is E. coli 44102. The description is as above. Type of series: cell-based.
Description: as §1, §4, §2, §3

Series [7] deals with Bacillus pneumoniae 46101. The series is described as above. The format is cell-based.
Description: as §1, §4, §2, §3

[8] abbreviates: mice, intragastric administration 1000 mg/kg.

Usually MIC stands for the least concentration at which growth counts as inhibited.

“5-thia-1-aza-bicyclo [4,2,0] octane-2-ene-2-carboxylic acid, 7-[[(2-amino-4-thiazolyl) (methoxy imine) acetyl]amino]-3-methyl-8-oxo-, [[3,3-dimethyl-4,4-dioxy-7-oxo-4-thia-1-aza-bicyclo [3,2,0] heptane-2-group]carbonyloxy]oxy]methyl ester [YR-1]”: the blood drug concentrations entry in [1] (in vivo, 1000 mg/kg) is “stable and persistent”. The “antibacterial activities in blood 8 hours after administration” value in [1] (setting [8]) was “can be detected”. Also, the “half-life period (compared with the intravenous controls)” value in series [1] (mouse, in vivo, 1000 mg/kg) was “longer half-life period”. Besides, the “MIC of the drug to bacteria” value was 50 µg/mL in series [2]; 1.56 µg/mL with Citrobacter 48017 (Citrobacter 48017, 10^5CFU/ML each point, 24 hours at 37° C.); 0.39 µg/mL with Shigella flexneri 51573 (Shigella flexneri 51573, 10^5CFU/ML each point, 24 hours at 37° C.); 0.39 µg/mL in the series with Shigella sonnet 51081 (Shigella sonnet 51081, 10^5CFU/ML each point, 24 hours at 37° C.); 0.195 µg/mL in the series on Bacillus proteus 49085 (Bacillus proteus 49085, 10^5CFU/ML each point, 24 hours at 37° C.); 100 µg/mL in series [3] (Pseudomonas aeruginosa 10124, 10^5CFU/ML each point, 24 hours at 37° C.). Further, the “MIC of the drug to bacteria” value in [4] (Salmonella enteritidis 50041, 10^5CFU/ML each point, 24 hours at 37° C.) worked out at 1.56 µg/mL; in the series on Proteus mirabilis 49005 (Proteus mirabilis 49005, 10^5CFU/ML each point, 24 hours at 37° C.), 0.098 µg/mL; in the series on Shigella bogdii 51313 (Shigella bogdii 51313, 10^5CFU/ML each point, 24 hours at 37° C.) it was 0.39 µg/mL; in the series with Candida ciferii 41002 (Candida ciferii 41002, 10^5CFU/ML each point, 24 hours at 37° C.), 0.78 µg/mL; in series [5] (Diplococcus lanceolatus 31002, 10^5CFU/ML each point, 24 hours at 37° C.), 100 µg/mL; in series [6] (Staphylococcus aureus 26003, 10^5CFU/ML each point, 24 hours at 37° C.), 100 µg/mL. For the same molecule, the “MIC of the drug to bacteria” value was 1.56 µg/mL in the series with Salmonella typhi 50097; 1.56 µg/mL with E. coli 44102 (E. coli 44102, 10^5CFU/ML each point, 24 hours at 37° C.); 0.78 µg/mL in series [7] (Bacillus pneumoniae 46101, 10^5CFU/ML each point, 24 hours at 37° C.).
As to `CON=C(C(=O)NC1C(=O)N2C(C(=O)OCOC(=O)C3N4C(=O)CC4S(=O)(=O)C3(C)C)=C(COC(N)=O)CSC12)c1ccco1` (stereo not drawn) [YR-2, 5-thia-1-aza-bicyclo [4,2,0] octane-2-ene-2-carboxylic acid, 7-[[(2-furane (methoxy imine)acetyl)amino]-3-[[(aminocarbonyloxy)oxy]methyl]-8-oxo-, [[3,3-dimethyl-4,4-dioxy-7-oxo-4-thia-1-aza-bicyclo[3,2,0]heptane-2-group]carbonyloxy]oxy]methyl ester], the blood drug concentrations entry in series [1] (in vivo, 1000 mg/kg) is “stable and persistent”. Moreover, the “antibacterial activities in blood 8 hours after administration” value in [1] (setting [8]) was “can be detected”. Moreover, the “half-life period (compared with the intravenous controls)” value in [1] (setting [8]) was “longer half-life period”. Besides, the MIC in series [2] (read-out: MIC of the drug to bacteria) was determined as 0.78 µg/mL; in the series with Citrobacter 48017 (Citrobacter, 48017, 24 h, read-out: MIC of the drug to bacteria), 3.13 µg/mL; with Shigella flexneri 51573 (Shigella flexneri, 51573, 24 h, read-out: MIC of the drug to bacteria) it was 3.13 µg/mL; in the series with Shigella sonnet 51081 (Shigella, 51081, 24 h, read-out: MIC of the drug to bacteria), 1.56 µg/mL; in the series with Bacillus proteus 49085 (Bacillus, 49085, 24 h, read-out: MIC of the drug to bacteria), 0.78 µg/mL; in series [3] (Pseudomonas aeruginosa, 10124, 24 h, read-out: MIC of the drug to bacteria), 100 µg/mL. Also, the MIC stood at 12.5 µg/mL in series [4] (Salmonella enterica, ENTERITIDIS, 24 h, read-out: MIC of the drug to bacteria); 3.13 µg/mL with Proteus mirabilis 49005 (Proteus mirabilis, 49005, 24 h, read-out: MIC of the drug to bacteria); 1.56 µg/mL in the series with Shigella bogdii 51313 (Shigella, 51313, 24 h, read-out: MIC of the drug to bacteria); 50 µg/mL with Candida ciferii 41002 (Candida, 41002, 24 h, read-out: MIC of the drug to bacteria); 25 µg/mL in series [5] (24 h, read-out: MIC of the drug to bacteria); 6.25 µg/mL in [6] (Staphylococcus aureus, 26003, 24 h, read-out: MIC of the drug to bacteria). Also, the MIC is 6.25 µg/mL in the series with Salmonella typhi 50097 (Salmonella enterica, read-out: MIC of the drug to bacteria); 12.5 µg/mL in the series with E. coli 44102 (Escherichia coli, 44102, 24 h, read-out: MIC of the drug to bacteria); 12.5 µg/mL in [7] (Klebsiella pneumoniae, 46101, 24 h, read-out: MIC of the drug to bacteria).
